The source made the active and inactive calls.
What was measured:
[1] = system: BJ; experiment: cytotoxicity toward BJ-TERT-LT-ST fibroblasts, dose response, cell-based, RAS-independent, luminescence (AID 1935); type: functional; conditions: Homo sapiens;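 also: BJ fibroblasts immortalized with TERT plus LT and ST oncogenes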
[2] = cytotoxicity toward DRD oncogenic fibroblasts, dose response, cell-based, non-viral oncogenic, luminescence (AID 1934); type: functional; conditions: Homo sapiens
[3] = THP-1 cell cytotoxicity, dose response, cytotoxicity control for non-replicating M. tuberculosis project (AID 489025); type: functional
[4] = molecular target: Nonstructural protein 1 (Influenza A virus, UniProt Q194T2); type: functional, Influenza A virus (A/California/07/2009(H1N1))
[5] = molecular target: T1, Insulin-degrading enzyme (Homo sapiens, UniProt P14735); experiment: activators of endogenous IDE in HEK cells, dose response, cell-based, fluorescence polarization (AID 588439); type: functional
T1 sequence (P14735 whole entry): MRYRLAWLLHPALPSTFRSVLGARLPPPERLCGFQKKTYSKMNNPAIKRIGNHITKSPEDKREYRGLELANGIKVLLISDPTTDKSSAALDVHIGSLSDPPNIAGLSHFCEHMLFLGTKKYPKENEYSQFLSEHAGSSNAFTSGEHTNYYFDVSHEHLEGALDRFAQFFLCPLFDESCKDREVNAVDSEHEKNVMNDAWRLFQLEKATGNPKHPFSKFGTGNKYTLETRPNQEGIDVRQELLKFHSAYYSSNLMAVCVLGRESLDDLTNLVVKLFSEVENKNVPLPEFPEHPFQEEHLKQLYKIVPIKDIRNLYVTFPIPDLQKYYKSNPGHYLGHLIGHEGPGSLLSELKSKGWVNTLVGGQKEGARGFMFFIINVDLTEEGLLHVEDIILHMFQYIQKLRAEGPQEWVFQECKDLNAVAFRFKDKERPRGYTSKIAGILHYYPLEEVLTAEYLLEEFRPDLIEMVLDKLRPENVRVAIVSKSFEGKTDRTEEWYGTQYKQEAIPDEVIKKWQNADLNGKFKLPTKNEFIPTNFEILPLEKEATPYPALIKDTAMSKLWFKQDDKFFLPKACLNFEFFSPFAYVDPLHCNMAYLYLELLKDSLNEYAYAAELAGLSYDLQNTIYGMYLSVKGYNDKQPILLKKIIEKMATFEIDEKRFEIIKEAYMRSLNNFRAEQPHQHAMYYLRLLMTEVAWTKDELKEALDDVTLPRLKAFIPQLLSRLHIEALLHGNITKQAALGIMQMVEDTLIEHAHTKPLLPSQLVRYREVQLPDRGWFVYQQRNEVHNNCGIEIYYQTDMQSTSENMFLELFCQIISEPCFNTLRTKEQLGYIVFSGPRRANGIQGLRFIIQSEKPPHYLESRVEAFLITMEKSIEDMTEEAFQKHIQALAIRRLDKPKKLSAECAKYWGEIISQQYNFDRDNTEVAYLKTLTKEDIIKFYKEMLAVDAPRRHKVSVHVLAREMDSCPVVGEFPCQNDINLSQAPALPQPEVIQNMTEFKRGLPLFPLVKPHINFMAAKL

[6] = Luminescence Cell-Based Dose Response HTS to Identify Inhibitors of 5'UTR Stem-Loop Driven Prion Protein mRNA Translation in H4 Neuroglioblastoma Cells. [Related pubchem assays: 1827 (Project Summary), 1813 (Primary HTS)]; type: functional
[7] = growth suppression of PTEN-null colon cells, dose response, cell-based, HCT116 PTEN knockout (AID 1047); type: functional;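 also: HCT116 colon tumor cells with PTEN knocked out; cells exposed to compound for 60 hours before readout; potency for loss of cell viability measured by luminescence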
[8] = inhibitors of firefly luciferase expression or activity, dose response, H4 neuroglioma cells, luminescence (AID 1990); type: functional, cell-based
[9] = system: HeLa; experiment: HeLa cell cytotoxicity, dose response, cytotoxicity control for MITF activator project, CellTiter-Glo luminescence, cherry-pick samples (AID 540259); type: functional, cell-based; conditions: Homo sapiens
[10] = molecular target: Induced myeloid leukemia cell differentiation protein Mcl-1 (Homo sapiens, UniProt Q07820); type: functional
Chain of Induced myeloid leukemia cell differentiation protein Mcl-1 (Q07820 whole entry): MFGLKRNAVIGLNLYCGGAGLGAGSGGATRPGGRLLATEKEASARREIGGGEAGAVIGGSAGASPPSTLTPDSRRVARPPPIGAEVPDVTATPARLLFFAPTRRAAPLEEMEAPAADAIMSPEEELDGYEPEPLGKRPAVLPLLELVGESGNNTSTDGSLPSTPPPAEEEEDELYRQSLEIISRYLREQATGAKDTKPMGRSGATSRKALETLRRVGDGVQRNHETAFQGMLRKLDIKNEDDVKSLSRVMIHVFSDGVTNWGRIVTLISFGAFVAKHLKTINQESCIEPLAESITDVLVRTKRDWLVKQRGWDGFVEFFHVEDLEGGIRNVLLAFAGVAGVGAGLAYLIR

Chain of Nonstructural protein 1 (Q194T2 whole entry): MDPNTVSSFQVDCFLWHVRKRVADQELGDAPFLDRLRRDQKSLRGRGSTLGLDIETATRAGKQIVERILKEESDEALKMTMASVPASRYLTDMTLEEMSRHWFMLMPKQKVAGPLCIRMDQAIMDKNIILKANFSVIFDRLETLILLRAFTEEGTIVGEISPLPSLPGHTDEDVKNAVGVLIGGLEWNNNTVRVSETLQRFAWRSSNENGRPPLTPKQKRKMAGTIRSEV

For CC(=O)NC(c1ccc2ccccc2c1)c1ccc2cccnc2c1O (stereo not given), the EC50 [1] was 6.07 µM (inconclusive) and the EC50 [2] was 6.52 µM (active).
For CCOC(=O)C1=C(c2ccccc2)N=C(N)NC1c1ccc(OCc2ccc(Cl)cc2)c(OC)c1 (stereo not given), the CC50 [3] was 9.43 µM (active), the IC50 [4] was 79.2 µM (active) and the EC50 [5] was 42.5 µM (inactive).
In the case of CCOC(=O)c1c(C)[nH]c2c1-c1ccccc1C(=O)C2=O, the EC50 [6] was 1.35 µM (active), the EC50 [7] was 0.487 µM (active) and the EC50 [8] was 3.02 µM (active).
For COc1ccc2c(c1)CCC(/C=N/c1ccc3c(c1)OCO3)=C2O, the AC50 [9] was 48.4 µM (active) and the IC50 [10] was 16.7 µM (not active).

— ChEMBL document CHEMBL1201862, “PubChem BioAssay data set” (2004)
